Measurements as given in article PMC8762706, “Design of Coibamide A Mimetics with Improved Cellular Bioactivity” (ACS Medicinal Chemistry Letters, 2021).
Where a SMILES comes first, the peptide text is derived from it. Bridges are numbered along the chain shown (N, C = ends). [ ]: non-standard residue; d: D form. The star is where a group is joined. Phe(4-NO2) = N[C@@H](Cc1ccc([N+](=O)[O-])cc1)C(=O)O; Phe(4-tBu) = CC(C)(C)c1ccc(C[C@H](N)C(=O)O)cc1; Bip = N[C@@H](Cc1ccc(-c2ccccc2)cc1)C(=O)O; Phe(4-Cl) = N[C@@H](Cc1ccc(Cl)cc1)C(=O)O; 1Nal = N[C@@H](Cc1cccc2ccccc12)C(=O)O; dNMeaIle = CC[C@H](C)[C@@H](NC)C(=O)O; NMe2Val = CC(C)[C@@H](C(=O)*)N(C)C; NMeLys(Me) = CNCCCC[C@H](NC)C(=O)O; NMeF = CN[C@@H](Cc1ccccc1)C(=O)O; NMeI = CC[C@H](C)[C@H](NC)C(=O)O; NMeT = CN[C@H](C(=O)O)[C@@H](C)O; Tic = O=C(O)[C@@H]1Cc2ccccc2CN1; Lys(Me) = CNCCCC[C@H](N)C(=O)O; NMeL = CN[C@@H](CC(C)C)C(=O)O; NMeOrn = CN[C@@H](CCCN)C(=O)O; NMeK = CN[C@@H](CCCCN)C(=O)O; dHiv = CC(C)[C@@H](O)C(=O)O; NMeS = CN[C@@H](CO)C(=O)O; NMeA = CN[C@@H](C)C(=O)O; dNMeA = CN[C@H](C)C(=O)O

These compounds were tested on A549 cells (assay: Growth inhibition assay (MTS) in A549 cells). Details: MTS assay.
Format: cell-based
Procedure: Growth Inhibition AssayS3
A549 cells were cultured in Dulbecco’s modified Eagle’s medium (DMEM; Sigma) supplemented with 10% (v/v) fetal bovine serum at 37 °C in a 5% CO2-incubator. Growth inhibition assays using A549 cells were performed in 96-well plates (BD Falcon). A549 cells were seeded at 1000 cells/well in 90 μL of culture media, respectively, and were cultured for 24 h. Chemical compounds in DMSO were diluted 50-fold with the culture medium in advance. 30 μL of the chemical diluents were added.
The final volume of DMSO in the medium was equal to 0.5% (v/v). The cells under chemical treatment were incubated for a further 72 h. The wells in the plates were washed twice with the cultured medium without phenol-red. After 1-hour incubation with 100 μL of the medium, the cell culture in each well was supplemented with 20 μL of the MTS reagent (Promega), followed by incubation for additional 40 min. Absorbance at 490 nm of each well was measured using a Wallac 1420 ARVO SX multilabel counter (Perkin Elmer). Three experiments were performed per condition and the averages of inhibition rates in each condition were evaluated to determine IC50 values using the GraphPad Prism software.

Compound	cytotoxicity / bioactivity in words
CC[C@H](C)[C@H]1C(=O)N[C@@H](C)C(=O)N(C)[C@@H](CC(C)C)C(=O)N(C)[C@@H](Cc2ccccc2)C(=O)N(C)CCCC[C@H](N(C)C(=O)[C@H](CC(C)C)N(C)C(=O)[C@H](C)N(C)C(=O)[C@H](OC(=O)[C@H](C(C)C)N(C)C)C(C)C)C(=O)N(C)[C@@H](C)C(=O)N1C [10n] (NMe2Val-[dHiv][NMeA][NMeL][NMeLys(Me)][NMeA][NMeI]A[NMeL][NMeF]; lactam 4-C)	loss of bioactivity
CC[C@H](C)[C@H]1C(=O)N[C@@H](C)C(=O)N(C)[C@@H](CC(C)C)C(=O)N2Cc3ccccc3C[C@H]2C(=O)N(C)CCCC[C@H](N(C)C(=O)[C@H](CC(C)C)N(C)C(=O)[C@H](C)N(C)C(=O)[C@H](OC(=O)[C@H](C(C)C)N(C)C)C(C)C)C(=O)N(C)[C@@H](C)C(=O)N1C [10o] (NMe2Val-[dHiv][NMeA][NMeL][NMeLys(Me)][NMeA][NMeI]A[NMeL][Tic]; lactam 4-C)	loss of bioactivity

Same assay, conditions: ratio of IC50 values to 1

Compound	fold more potent cytotoxicity than 1 (coibamide A)	times less active than the natural product 1
CC[C@H](C)[C@H]1C(=O)N[C@@H](C)C(=O)N(C)[C@@H](CC(C)C)C(=O)N[C@@H](Cc2ccc(-c3ccccc3)cc2)C(=O)N(C)[C@H](C)C(=O)O[C@H](C)[C@H](N(C)C(=O)[C@H](CC(C)C)N(C)C(=O)[C@H](COC)N(C)C(=O)[C@H](OC(=O)[C@H](C(C)C)N(C)C)C(C)C)C(=O)N(C)[C@@H](COC)C(=O)N1C [compound 11, [Bph^10]-CbA] (NMe2Val-[dHiv][NMeS](Me)[NMeL][NMeT][NMeS](Me)[NMeI]A[NMeL][Bip][dNMeA]; ester 4-C)	12 fold	–
CC[C@H](C)[C@H]1C(=O)N[C@@H](C)C(=O)N(C)[C@@H](CC(C)C)C(=O)N[C@@H](Cc2ccc(OC)cc2)C(=O)N(C)CCCC[C@H](N(C)C(=O)[C@H](CC(C)C)N(C)C(=O)[C@H](C)N(C)C(=O)[C@H](OC(=O)[C@H](C(C)C)N(C)C)C(C)C)C(=O)N(C)[C@@H](C)C(=O)N1C [2a, [MeAla^3, MeLys(Me)^5, MeAla^6]-CbA] (NMe2Val-[dHiv][NMeA][NMeL][NMeLys(Me)][NMeA][NMeI]A[NMeL]Y(Me); lactam 4-C)	–	approximately 300 times

Same assay, conditions: ratio of IC50 values to 2a

Compound	fold decrease in cytotoxicity compared with peptide 2a
CC[C@H](C)[C@@H]1NC(=O)[C@H](C)N(C)C(=O)[C@@H](N(C)C(=O)[C@H](CC(C)C)N(C)C(=O)[C@H](C)N(C)C(=O)[C@H](OC(=O)[C@H](C(C)C)N(C)C)C(C)C)CCCCN(C)C(=O)[C@H](Cc2ccc(OC)cc2)NC(=O)[C@H](CC(C)C)N(C)C(=O)[C@H](C)NC1=O [8e] (NMe2Val-[dHiv][NMeA][NMeL][NMeLys(Me)][NMeA]IA[NMeL]Y(Me); lactam 4-C)	nine-fold or more lower

Same assay, conditions: read-out: IC50 (concentration for 50% growth inhibition of A549 cells), MTS assay, 72 h treatment, 0.5% DMSO, absorbance 490 nm, n = 3

Compound	IC50
CC[C@H](C)[C@H]1C(=O)N[C@@H](C)C(=O)N(C)[C@@H](CC(C)C)C(=O)N[C@@H](Cc2ccc(C(C)(C)C)cc2)C(=O)N(C)CCCC[C@H](N(C)C(=O)[C@H](CC(C)C)N(C)C(=O)[C@H](C)N(C)C(=O)[C@H](OC(=O)[C@H](C(C)C)N(C)C)C(C)C)C(=O)N(C)[C@@H](C)C(=O)N1C [10g] (NMe2Val-[dHiv][NMeA][NMeL][NMeLys(Me)][NMeA][NMeI]A[NMeL][Phe(4-tBu)]; lactam 4-C)	0.61 ± 0.21 µM
CC[C@H](C)[C@H]1C(=O)N[C@@H](C)C(=O)N(C)[C@@H](CC(C)C)C(=O)N[C@@H](Cc2ccc(OC)cc2)C(=O)NCCC[C@H](N(C)C(=O)[C@H](CC(C)C)N(C)C(=O)[C@H](C)N(C)C(=O)[C@H](OC(=O)[C@H](C(C)C)N(C)C)C(C)C)C(=O)N(C)[C@@H](C)C(=O)N1C [2g] (NMe2Val-[dHiv][NMeA][NMeL][NMeOrn][NMeA][NMeI]A[NMeL]Y(Me); lactam 4-C)	> 10 µM
CC[C@H](C)[C@H]1C(=O)N[C@@H](C)C(=O)N(C)[C@@H](CC(C)C)C(=O)N[C@@H](Cc2ccc(OC)cc2)C(=O)N(C)CCCC[C@H](NC(=O)[C@H](CC(C)C)N(C)C(=O)[C@H](C)N(C)C(=O)[C@H](OC(=O)[C@H](C(C)C)N(C)C)C(C)C)C(=O)N(C)[C@@H](C)C(=O)N1C [8c] (NMe2Val-[dHiv][NMeA][NMeL][Lys(Me)][NMeA][NMeI]A[NMeL]Y(Me); lactam 4-C)	6.4 ± 1.7 µM
CC[C@H](C)[C@@H]1C(=O)N[C@@H](C)C(=O)N(C)[C@@H](CC(C)C)C(=O)N[C@@H](Cc2ccc(OC)cc2)C(=O)N(C)CCCC[C@H](N(C)C(=O)[C@H](CC(C)C)N(C)C(=O)[C@H](C)N(C)C(=O)[C@H](OC(=O)[C@H](C(C)C)N(C)C)C(C)C)C(=O)N(C)[C@@H](C)C(=O)N1C [9b] (NMe2Val-[dHiv][NMeA][NMeL][NMeLys(Me)][NMeA][dNMeaIle]A[NMeL]Y(Me); lactam 4-C)	> 10 µM
CC[C@H](C)[C@H]1C(=O)N[C@@H](C)C(=O)N(C)[C@@H](CC(C)C)C(=O)N[C@@H](Cc2ccc(OC)cc2)C(=O)NCCCC[C@H](N(C)C(=O)[C@H](CC(C)C)N(C)C(=O)[C@H](C)N(C)C(=O)[C@H](OC(=O)[C@H](C(C)C)N(C)C)C(C)C)C(=O)N(C)[C@@H](C)C(=O)N1C [2e] (NMe2Val-[dHiv][NMeA][NMeL][NMeK][NMeA][NMeI]A[NMeL]Y(Me); lactam 4-C)	0.85 ± 0.02 µM
CC[C@H](C)[C@H]1C(=O)N[C@@H](C)C(=O)N(C)[C@@H](CC(C)C)C(=O)N[C@@H](Cc2ccc(OC)cc2)C(=O)N(C)CCC[C@H](N(C)C(=O)[C@H](CC(C)C)N(C)C(=O)[C@H](C)N(C)C(=O)[C@H](OC(=O)[C@H](C(C)C)N(C)C)C(C)C)C(=O)N(C)[C@@H](C)C(=O)N1C [2c]	9.6 ± 3.2 µM
CC[C@H](C)[C@H]1C(=O)N[C@@H](C)C(=O)N(C)[C@@H](CC(C)C)C(=O)N[C@@H](Cc2ccc(Cl)cc2)C(=O)N(C)CCCC[C@H](N(C)C(=O)[C@H](CC(C)C)N(C)C(=O)[C@H](C)N(C)C(=O)[C@H](OC(=O)[C@H](C(C)C)N(C)C)C(C)C)C(=O)N(C)[C@@H](C)C(=O)N1C [10f] (NMe2Val-[dHiv][NMeA][NMeL][NMeLys(Me)][NMeA][NMeI]A[NMeL][Phe(4-Cl)]; lactam 4-C)	0.71 ± 0.19 µM
CC[C@H](C)[C@H]1C(=O)N[C@@H](C)C(=O)N(C)[C@@H](CC(C)C)C(=O)N[C@@H](Cc2ccc(OC)cc2)C(=O)N(C)CCCC[C@H](N(C)C(=O)[C@H](CC(C)C)N(C)C(=O)[C@H](C)NC(=O)[C@H](OC(=O)[C@H](C(C)C)N(C)C)C(C)C)C(=O)N(C)[C@@H](C)C(=O)N1C [8a] (NMe2Val-[dHiv]A[NMeL][NMeLys(Me)][NMeA][NMeI]A[NMeL]Y(Me); lactam 4-C)	2.2 ± 0.6 µM
CC[C@H](C)[C@H]1C(=O)N[C@@H](C)C(=O)N(C)[C@@H](CC(C)C)C(=O)N(C)[C@@H](Cc2ccccc2)C(=O)N(C)CCCC[C@H](N(C)C(=O)[C@H](CC(C)C)N(C)C(=O)[C@H](C)N(C)C(=O)[C@H](OC(=O)[C@H](C(C)C)N(C)C)C(C)C)C(=O)N(C)[C@@H](C)C(=O)N1C [10n] (NMe2Val-[dHiv][NMeA][NMeL][NMeLys(Me)][NMeA][NMeI]A[NMeL][NMeF]; lactam 4-C)	> 10 µM
CC[C@H](C)[C@H]1C(=O)N[C@@H](C)C(=O)N(C)[C@@H](CC(C)C)C(=O)N2Cc3ccccc3C[C@H]2C(=O)N(C)CCCC[C@H](N(C)C(=O)[C@H](CC(C)C)N(C)C(=O)[C@H](C)N(C)C(=O)[C@H](OC(=O)[C@H](C(C)C)N(C)C)C(C)C)C(=O)N(C)[C@@H](C)C(=O)N1C [10o] (NMe2Val-[dHiv][NMeA][NMeL][NMeLys(Me)][NMeA][NMeI]A[NMeL][Tic]; lactam 4-C)	> 10 µM
CC[C@H](C)[C@H]1C(=O)N[C@@H](C)C(=O)N(C)[C@@H](CC(C)C)C(=O)N[C@@H](Cc2cccc3ccccc23)C(=O)N(C)CCCC[C@H](N(C)C(=O)[C@H](CC(C)C)N(C)C(=O)[C@H](C)N(C)C(=O)[C@H](OC(=O)[C@H](C(C)C)N(C)C)C(C)C)C(=O)N(C)[C@@H](C)C(=O)N1C [10p] (NMe2Val-[dHiv][NMeA][NMeL][NMeLys(Me)][NMeA][NMeI]A[NMeL][1Nal]; lactam 4-C)	4.8 ± 0.5 µM
CC[C@H](C)[C@H]1C(=O)N[C@H](C)C(=O)N(C)[C@@H](CC(C)C)C(=O)N[C@@H](Cc2ccc(OC)cc2)C(=O)N(C)CCCC[C@H](N(C)C(=O)[C@H](CC(C)C)N(C)C(=O)[C@H](C)N(C)C(=O)[C@H](OC(=O)[C@H](C(C)C)N(C)C)C(C)C)C(=O)N(C)[C@@H](C)C(=O)N1C [9c] (NMe2Val-[dHiv][NMeA][NMeL][NMeLys(Me)][NMeA][NMeI][dA][NMeL]Y(Me); lactam 4-C)	> 10 µM
CC[C@H](C)[C@H]1C(=O)N[C@@H](C)C(=O)N(C)[C@@H](CC(C)C)C(=O)N[C@H](Cc2ccc(OC)cc2)C(=O)N(C)CCCC[C@H](N(C)C(=O)[C@H](CC(C)C)N(C)C(=O)[C@H](C)N(C)C(=O)[C@H](OC(=O)[C@H](C(C)C)N(C)C)C(C)C)C(=O)N(C)[C@@H](C)C(=O)N1C [9e] (NMe2Val-[dHiv][NMeA][NMeL][NMeLys(Me)][NMeA][NMeI]A[NMeL][dY](Me); lactam 4-C)	> 10 µM
CC[C@H](C)[C@H]1C(=O)N[C@@H](C)C(=O)N(C)[C@@H](CC(C)C)C(=O)N[C@@H](Cc2ccc([N+](=O)[O-])cc2)C(=O)N(C)CCCC[C@H](N(C)C(=O)[C@H](CC(C)C)N(C)C(=O)[C@H](C)N(C)C(=O)[C@H](OC(=O)[C@H](C(C)C)N(C)C)C(C)C)C(=O)N(C)[C@@H](C)C(=O)N1C [10b] (NMe2Val-[dHiv][NMeA][NMeL][NMeLys(Me)][NMeA][NMeI]A[NMeL][Phe(4-NO2)]; lactam 4-C)	1.1 ± 0.2 µM
CC[C@H](C)[C@H]1C(=O)N[C@@H](C)C(=O)N(C)[C@@H](CC(C)C)C(=O)N[C@@H](Cc2ccc(OC)cc2)C(=O)N(C)CCCC[C@H](N(C)C(=O)[C@H](CC(C)C)N(C)C(=O)[C@H](C)N(C)C(=O)[C@H](OC(=O)[C@H](C(C)C)N(C)C)C(C)C)C(=O)N(C)[C@H](C)C(=O)N1C [9a] (NMe2Val-[dHiv][NMeA][NMeL][NMeLys(Me)][dNMeA][NMeI]A[NMeL]Y(Me); lactam 4-C)	> 10 µM
